Measurements published in publication PMC8610590 (Journal of Virology, 2021).
Read-outs that look alike come from different tables or passages of the source.

Assays:
[1] = tested on: SARS-CoV-2 isolate USA-WI1/2020; assay: microbe, parasite or virus in culture; assay type: cell-based
[2] = tested on: SARS-CoV-2 isolate USA-WI1/2020; assay: Antiviral activity against live SARS-CoV-2 in UNCN1T cells; assay type: cell-based; details: for antiviral efficacy against live SARS-CoV-2 (in words): UNCN1T cells, compared to DMSO vehicle control, data not shown
[3] = tested on: pseudotyped lentiviral particles expressing Spike glycoprotein of SARS-CoV-2; assay: microbe, parasite or virus in culture; assay type: cell-based
[4] = target: ACE2: SARS-CoV-2 Spike RBD (UniProt P0DTC2+Q9BYF1); assay: ACE2: SARS-CoV-2 Spike RBD inhibitor screening assay; assay type: binding, human ACE2 / SARS-CoV-2
[5] = MTT cell viability assay, Vero-STAT1 knockout; assay type: cell-based; details: African green monkey
SARS-CoV-2 = assay type: cell-based
[6] = tested on: SARS-CoV-2 isolate USA-WI1/2020; assay type: cell-based
[7] = Severe acute respiratory syndrome coronavirus 2, read-out: IC50, inhibition of SARS-CoV-2 replication
[8] = read-out: IC50, inhibition of SARS-CoV-2 replication

SMILES | pseudotype viral entry inhibition (in words) [3] | IC50 [4] [µM] | CC50 at 72 h [5] [µM] | SARS-CoV-2 infection compared with vehicle controls (in words) (SARS-CoV-2) | antiviral efficacy against live SARS-CoV-2 (in words) [2] | other results
CN1C(=O)c2ccccc2[S+]([O-])c2cc([N+](=O)[O-])ccc2S1(=O)=O (stereo not drawn) [MU-UNMC-1, 6-methyl-2-nitrodibenzo[d,g][1,6,2]dithiazocin-7(6H)-one 5,5,12-trioxide] | low level of viral entry inhibition with a slight increase at higher concentrations | < 0.25 | 6.21 | no significant difference | – | IC50 [1, 7]: 5.35 µM; IC50 [1, 8]: 2.94 µM; IC50 [2, 7]: 0.67 µM; IC50 [2, 8]: 1.16 µM
O=C1Nc2cc(C(F)(F)F)ccc2Oc2ccsc21 [MU-UNMC-2, 7-(trifluoromethyl) benzo[b]thieno[2,3-f][1,4]oxazepin-10(9H)-one] | significant and robust viral entry inhibition across a broad concentration range | – | 7.13 | no significant difference | – | reduction in dosages in combination ([6]; RDV/MU-UNMC-2 combination, human bronchial epithelial cell line): 28.3 fold; IC50 ([3]; Severe acute respiratory syndrome coronavirus 2, 48 h, read-out: IC50, inhibition of entry of pseudotyped lentiviral particles): 0.84 µM
CCn1c(SCC(=O)N2CCCc3ccccc32)nnc1-c1cccs1 [MU-UNMC-6, 1-(3,4-dihydroquinolin-1(2H)-yl)-2-((4-ethyl-5-(thiophen-2-yl)-4H-1,2,4-triazol-3-yl)thio) ethanone] | failed to prevent the pseudovirus entry | 1.91 | – | – | did not see any reduction in viral replication kinetics | –
OC(CNCCNc1ncccc1C(F)(F)F)Cn1ccc2ccccc21 (stereo not drawn) [MU-UNMC-7, 1-(1H-indol-1-yl)-3-((2-((3-(trifluoromethyl)pyridin-2-yl)amino)ethyl)amino)propan-2-ol] | failed to prevent the pseudovirus entry | > 5 | – | – | did not see any reduction in viral replication kinetics | –
CN(C)/C=C1\N=C(c2cccnc2Oc2ccc(Cl)cc2)OC1=O [MU-UNMC-8, (Z)-2-(2-(4-chlorophenoxy)pyridin-3-yl)-4-((dimethylamino)methylene)oxazol-5(4H)-one] | failed to prevent the pseudovirus entry | > 5 | – | – | did not see any reduction in viral replication kinetics | –
CCC(CC)COC(=O)[C@H](C)N[P@](=O)(OC[C@H]1O[C@@](C#N)(c2ccc3c(N)ncnn23)[C@H](O)[C@@H]1O)Oc1ccccc1 [RDV, remdesivir] | – | – | – | – | – | reduction in dosages in combination [6]: 2.3 fold; dose reduction index (DRI) ([6]; RDV/MU-UNMC-2 combination, UNCN1T cells, CompuSyn): 2.33
